# Experimental data: patent US7560480B2, “Alkyl-containing 5-acylindolinones, the preparation thereof and their use as medicaments” (Boehringer Ingelheim International GmbH, priority 2004, dated 2009)
# Assays:
# [1] = system: mice; test: Tolerability after oral administration (animals' behaviour); format: in vivo; conditions: oral administration of 10 mg/kg
# [2] = system: db/db mice; test: Oral glucose tolerance test; format: in vivo; conditions: fasted db/db mice, 2 g/kg glucose orally 30 minutes after the substance
# Experimental: Oral Glucose Tolerance Test
# Fasted db/db mice 7 to 9 weeks old (Janvier, France) are weighed and blood is taken from the tip of the tail. This blood is used for the first measurement of glucose on the basis of which the animals are randomised and divided into groups. The test substance to be tested may be given either orally or i.p. as a suspension in 0.5% Natrosol. 30 minutes after the administration of the substance the animals are given orally 2 g/kg glucose in a volume of 0.1 ml/100 g body weight dissolved in NaCl solution. Subsequently, the glucose values are determined from the tail blood using a glucometer (Ultra OneTouch, Lifescan) at specific time intervals [30, 60, 120 and 180 minutes after oral administration of the glucose].
smiles,measurement,setting,value
CC(=O)c1ccc2c(c1)/C(=C(/NCCC(=O)N1CCN(C)CC1)c1ccccc1)C(=O)N2 [Example 1.009],tolerability: changes in the animals' behaviour,[1],no changes were observed in the animals' behaviour
same,activity in the oral glucose tolerance test,[2],significant activity
